Source: ChEMBL document CHEMBL4680314, “Discovery of potent glycogen synthase kinase 3/cholinesterase inhibitors with neuroprotection as potential therapeutic agent for Alzheimer's disease” (Bioorg Med Chem, 2021)
Calls of active or inactive are those of the source. The calls are words filed in the database; no cut-off is given here.

Tested on: BV-2
Test: Anti-inflammatory activity in mouse BV-2 cells assessed as reduction in LPS-induced TNFalpha expression at 4 uM incubated for 1 hr followed by LPS stimulation and measured after 24 hrs by immunofluorescence based laser confocal microscopy
Type: functional, cell-based
Conditions: time 25.0 hrs

Row | Compound | Activity
1 | NC(=O)c1sc(-c2ccnc(NC(=O)C3CC3)c2)nc1OCCCC1CCN(Cc2ccccc2)CC1 | Active

Tested on: BV-2
Test: Anti-inflammatory activity in mouse BV-2 cells assessed as reduction in LPS-induced TNFalpha production incubated for 1 hr followed by LPS stimulation and measured after 24 hrs by ELISA
Type: functional, cell-based
Conditions: dose 2-8 µM, time 25.0 hrs

Row | Compound | Activity
2 | NC(=O)c1sc(-c2ccnc(NC(=O)C3CC3)c2)nc1OCCCC1CCN(Cc2ccccc2)CC1 | Dose-dependent effect

Target: Acetylcholinesterase (Homo sapiens, UniProt P22303)
Sequence (P22303 whole entry): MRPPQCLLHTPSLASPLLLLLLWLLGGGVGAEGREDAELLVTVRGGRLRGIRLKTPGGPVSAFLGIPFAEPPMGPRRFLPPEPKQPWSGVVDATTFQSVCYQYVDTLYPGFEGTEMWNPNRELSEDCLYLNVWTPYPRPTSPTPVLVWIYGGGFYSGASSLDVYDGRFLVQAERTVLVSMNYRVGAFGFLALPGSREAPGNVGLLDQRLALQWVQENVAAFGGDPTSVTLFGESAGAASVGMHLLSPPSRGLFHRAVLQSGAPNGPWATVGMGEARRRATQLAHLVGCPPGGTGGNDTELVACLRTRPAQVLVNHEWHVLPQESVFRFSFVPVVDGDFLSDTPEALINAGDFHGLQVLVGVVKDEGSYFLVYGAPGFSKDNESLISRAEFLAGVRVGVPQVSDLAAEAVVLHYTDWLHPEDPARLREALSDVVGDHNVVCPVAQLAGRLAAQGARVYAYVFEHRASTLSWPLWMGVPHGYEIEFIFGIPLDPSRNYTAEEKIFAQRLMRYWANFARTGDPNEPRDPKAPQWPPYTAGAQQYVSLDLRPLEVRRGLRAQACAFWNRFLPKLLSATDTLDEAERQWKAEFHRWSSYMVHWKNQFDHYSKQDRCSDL
Test: Inhibition of human recombinant AChE expressed in HEK293 cells using acetylthiocholine iodide as substrate incubated for 10 mins by Ellman's method
Type: cell-based
Conditions: not given

Row | Compound | IC50
3 | NC(=O)c1sc(-c2ccnc(NC(=O)C3CC3)c2)nc1OCCCC1CCN(Cc2ccccc2F)CC1 | 1320 nM
4 | NC(=O)c1sc(-c2ccnc(NC(=O)C3CC3)c2)nc1OCCCC1CCN(Cc2ccccc2)CC1 | 380 nM

Tested on: not listed separately
Test: Tmax in Sprague-Dawley rat at 5 mg/kg, iv measured upto 24 hrs by LC-MS/MS analysis
Type: ADME, organism-based
Conditions: in vivo

Row | Compound | Tmax
5 | NC(=O)c1sc(-c2ccnc(NC(=O)C3CC3)c2)nc1OCCCC1CCN(Cc2ccccc2)CC1 | 4.98 min

Tested on: not listed separately
Test: Clearance in Sprague-Dawley rat at 10 mg/kg, po measured upto 24 hrs by LC-MS/MS analysis
Type: ADME, organism-based
Conditions: in vivo

Row | Compound | CL/F
6 | NC(=O)c1sc(-c2ccnc(NC(=O)C3CC3)c2)nc1OCCCC1CCN(Cc2ccccc2)CC1 | 296 mL/min/kg

Tested on: not listed separately
Test: Ratio of drug level in ICR mouse brain to blood at 15 mg/kg, po measured after 90 mins by LC-MS/MS analysis
Type: ADME, organism-based
Conditions: 1.5 h

Row | Compound | Ratio
7 | NC(=O)c1sc(-c2ccnc(NC(=O)C3CC3)c2)nc1OCCCC1CCN(Cc2ccccc2)CC1 | 9.2 ng/kg

Tested on: not listed separately
Test: Clearance in Sprague-Dawley rat at 5 mg/kg, iv measured upto 24 hrs by LC-MS/MS analysis
Type: ADME, organism-based
Conditions: in vivo

Row | Compound | clearance
8 | NC(=O)c1sc(-c2ccnc(NC(=O)C3CC3)c2)nc1OCCCC1CCN(Cc2ccccc2)CC1 | 50.1 mL/min/kg

Tested on: BV-2
Test: Cytotoxicity against mouse BV-2 cells assessed as effect on cell morphology
Type: cell-based
Conditions: not given

Row | Compound | Activity
9 | NC(=O)c1sc(-c2ccnc(NC(=O)C3CC3)c2)nc1OCCCC1CCN(Cc2ccccc2)CC1 | Non-Toxic

Tested on: not listed separately
Test: Tmax in Sprague-Dawley rat at 10 mg/kg, po measured upto 24 hrs by LC-MS/MS analysis
Type: ADME, organism-based
Conditions: in vivo

Row | Compound | Tmax
10 | NC(=O)c1sc(-c2ccnc(NC(=O)C3CC3)c2)nc1OCCCC1CCN(Cc2ccccc2)CC1 | 8 h

Tested on: BV-2
Test: Anti-inflammatory activity in mouse BV-2 cells assessed as reduction in LPS-induced IL-1beta production incubated for 1 hr followed by LPS stimulation and measured after 24 hrs by ELISA
Type: functional, cell-based
Conditions: dose 2-8 µM, time 25.0 hrs

Row | Compound | Activity
11 | NC(=O)c1sc(-c2ccnc(NC(=O)C3CC3)c2)nc1OCCCC1CCN(Cc2ccccc2)CC1 | Dose-dependent effect

Tested on: not listed separately
Test: AUC (0 to 24 hrs) in Sprague-Dawley rat at 5 mg/kg, iv measured upto 24 hrs by LC-MS/MS analysis
Type: ADME, organism-based
Parameters: route intravenous, dose 5 mg/kg, time <=24
Conditions: in vivo

Row | Compound | AUC(0-t)
12 | NC(=O)c1sc(-c2ccnc(NC(=O)C3CC3)c2)nc1OCCCC1CCN(Cc2ccccc2)CC1 | 1680 ng·h/mL

Tested on: not listed separately
Test: MRT (0 to t) in Sprague-Dawley rat at 10 mg/kg, po measured upto 24 hrs by LC-MS/MS analysis
Type: ADME, organism-based
Conditions: in vivo

Row | Compound | MRT last at 24 h
13 | NC(=O)c1sc(-c2ccnc(NC(=O)C3CC3)c2)nc1OCCCC1CCN(Cc2ccccc2)CC1 | 9.2 h

Tested on: not listed separately
Test: Toxicity in ICR mouse model of scopolamine-induced cognitive dysfunction assessed as effect on locomotor activity by measuring effect on swimming speed at 15 mg/kg, po by Morris water maze test
Type: organism-based
Conditions: in vivo

Row | Compound | Activity
14 | NC(=O)c1sc(-c2ccnc(NC(=O)C3CC3)c2)nc1OCCCC1CCN(Cc2ccccc2)CC1 | Non-Toxic

Tested on: not listed separately
Test: Half life in Sprague-Dawley rat at 10 mg/kg, po measured upto 24 hrs by LC-MS/MS analysis
Type: ADME, organism-based
Conditions: in vivo

Row | Compound | half-life
15 | NC(=O)c1sc(-c2ccnc(NC(=O)C3CC3)c2)nc1OCCCC1CCN(Cc2ccccc2)CC1 | 3.9 h

Tested on: not listed separately
Test: in vitro
Conditions: PAMPA
Description: Effective permeability of compound in PBS/EtOH buffer (7:3) at 25 ug/ml incubated for 18 hrs by PAMPA-BBB assay

Row | Compound | Papp at 18 h, 25 ug/ml
16 | NC(=O)c1sc(-c2ccnc(NC(=O)C3CC3)c2)nc1OCCCC1CCN(Cc2ccccc2F)CC1 | 7.1 ×10⁻⁶ cm/s
17 | NC(=O)c1sc(-c2ccnc(NC(=O)C3CC3)c2)nc1OCCCC1CCN(Cc2ccccc2)CC1 | 10.9 ×10⁻⁶ cm/s

Tested on: not listed separately
Test: Volume of distribution in Sprague-Dawley rat at 5 mg/kg, iv measured upto 24 hrs by LC-MS/MS analysis
Type: ADME, organism-based
Conditions: in vivo

Row | Compound | Vd
18 | NC(=O)c1sc(-c2ccnc(NC(=O)C3CC3)c2)nc1OCCCC1CCN(Cc2ccccc2)CC1 | 30.7 L/kg

Tested on: not listed separately
Test: AUC (0 to 24 hrs) in Sprague-Dawley rat at 10 mg/kg, po measured upto 24 hrs by LC-MS/MS analysis
Type: ADME, organism-based
Parameters: route oral, dose 10 mg/kg, time <=24
Conditions: in vivo

Row | Compound | AUC(0-t)
19 | NC(=O)c1sc(-c2ccnc(NC(=O)C3CC3)c2)nc1OCCCC1CCN(Cc2ccccc2)CC1 | 440 ng·h/mL

Tested on: not listed separately
Test: Oral bioavailability in Sprague-Dawley rat at 10 mg/kg measured upto 24 hrs by LC-MS/MS analysis
Type: ADME, organism-based
Conditions: in vivo

Row | Compound | bioavailability
20 | NC(=O)c1sc(-c2ccnc(NC(=O)C3CC3)c2)nc1OCCCC1CCN(Cc2ccccc2)CC1 | 15.1%

Tested on: not listed separately
Test: AUC (0 to infinity) in Sprague-Dawley rat at 5 mg/kg, iv by LC-MS/MS analysis
Type: ADME, organism-based
Parameters: route intravenous, dose 5 mg/kg
Conditions: in vivo

Row | Compound | AUC(0-inf)
21 | NC(=O)c1sc(-c2ccnc(NC(=O)C3CC3)c2)nc1OCCCC1CCN(Cc2ccccc2)CC1 | 1760 ng·h/mL

Tested on: not listed separately
Test: Drug uptake in mouse BV-2 cells at 25 uM incubated for 1 hr measured per million cells by LC-MS/MS analysis
Type: ADME, cell-based
Conditions: bv-2, 1 h

Row | Compound | Drug uptake
22 | NC(=O)c1sc(-c2ccnc(NC(=O)C3CC3)c2)nc1OCCCC1CCN(Cc2ccccc2)CC1 | 103 ng

Target: Cholinesterase (Homo sapiens, UniProt P06276)
Sequence (P06276 whole entry): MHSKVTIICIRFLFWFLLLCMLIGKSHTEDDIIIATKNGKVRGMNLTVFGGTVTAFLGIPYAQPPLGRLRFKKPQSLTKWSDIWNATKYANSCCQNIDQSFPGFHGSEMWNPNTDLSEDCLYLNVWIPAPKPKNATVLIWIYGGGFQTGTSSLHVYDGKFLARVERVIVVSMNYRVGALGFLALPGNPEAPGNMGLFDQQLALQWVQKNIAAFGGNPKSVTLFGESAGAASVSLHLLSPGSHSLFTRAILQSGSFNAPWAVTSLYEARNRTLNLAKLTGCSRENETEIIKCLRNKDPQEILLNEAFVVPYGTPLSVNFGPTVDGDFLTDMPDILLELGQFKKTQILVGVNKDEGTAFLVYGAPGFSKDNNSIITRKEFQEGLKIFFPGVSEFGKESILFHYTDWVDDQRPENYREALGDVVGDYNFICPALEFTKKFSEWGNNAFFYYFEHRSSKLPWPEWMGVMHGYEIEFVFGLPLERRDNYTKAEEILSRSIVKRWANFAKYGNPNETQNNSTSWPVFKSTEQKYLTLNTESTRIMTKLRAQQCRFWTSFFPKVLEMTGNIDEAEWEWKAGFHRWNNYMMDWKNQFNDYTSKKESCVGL
Test: Inhibition of human BChE using butyrylthiocholineiodide as substrate incubated for 10 mins by Ellman's method
Conditions: not given

Row | Compound | IC50
23 | NC(=O)c1sc(-c2ccnc(NC(=O)C3CC3)c2)nc1OCCCC1CCN(Cc2ccccc2F)CC1 | 4200 nM
24 | NC(=O)c1sc(-c2ccnc(NC(=O)C3CC3)c2)nc1OCCCC1CCN(Cc2ccccc2)CC1 | 20600 nM

Tested on: not listed separately
Test: Cmax in Sprague-Dawley rat at 5 mg/kg, iv measured upto 24 hrs by LC-MS/MS analysis
Type: ADME, organism-based
Parameters: route intravenous, dose 5 mg/kg, time <=24
Conditions: in vivo

Row | Compound | Cmax
25 | NC(=O)c1sc(-c2ccnc(NC(=O)C3CC3)c2)nc1OCCCC1CCN(Cc2ccccc2)CC1 | 771 ng/mL

Tested on: not listed separately
Test: Toxicity in ICR mouse assessed as reduction in body weight at 15 mg/kg, po
Type: organism-based
Conditions: in vivo

Row | Compound | Activity
26 | NC(=O)c1sc(-c2ccnc(NC(=O)C3CC3)c2)nc1OCCCC1CCN(Cc2ccccc2)CC1 | Non-Toxic

Tested on: not listed separately
Test: AUC (0 to infinity) in Sprague-Dawley rat at 10 mg/kg, po by LC-MS/MS analysis
Type: ADME, organism-based
Parameters: route oral, time infinity, dose 10 mg/kg
Conditions: in vivo

Row | Compound | AUC(0-inf)
27 | NC(=O)c1sc(-c2ccnc(NC(=O)C3CC3)c2)nc1OCCCC1CCN(Cc2ccccc2)CC1 | 453 ng·h/mL

Tested on: not listed separately
Test: Half life in Sprague-Dawley rat at 5 mg/kg, iv measured upto 24 hrs by LC-MS/MS analysis
Type: ADME, organism-based
Conditions: in vivo

Row | Compound | half-life
28 | NC(=O)c1sc(-c2ccnc(NC(=O)C3CC3)c2)nc1OCCCC1CCN(Cc2ccccc2)CC1 | 6.3 h

Tested on: BV-2
Test: Anti-inflammatory activity in mouse BV-2 cells assessed as reduction in LPS-induced IL-1beta expression at 4 uM incubated for 1 hr followed by LPS stimulation and measured after 24 hrs by immunofluorescence based laser confocal microscopy
Type: functional, cell-based
Conditions: time 25.0 hrs

Row | Compound | Activity
29 | NC(=O)c1sc(-c2ccnc(NC(=O)C3CC3)c2)nc1OCCCC1CCN(Cc2ccccc2)CC1 | Active

Tested on: not listed separately
Test: MRT (0 to t) in Sprague-Dawley rat at 5 mg/kg, iv measured upto 24 hrs by LC-MS/MS analysis
Type: ADME, organism-based
Conditions: in vivo

Row | Compound | MRT last at 24 h
30 | NC(=O)c1sc(-c2ccnc(NC(=O)C3CC3)c2)nc1OCCCC1CCN(Cc2ccccc2)CC1 | 5.1 h

Tested on: not listed separately
Test: Volume of distribution in Sprague-Dawley rat at 10 mg/kg, po measured upto 24 hrs by LC-MS/MS analysis
Type: ADME, organism-based
Conditions: in vivo

Row | Compound | Vd
31 | NC(=O)c1sc(-c2ccnc(NC(=O)C3CC3)c2)nc1OCCCC1CCN(Cc2ccccc2)CC1 | 77 L/kg

Tested on: not listed separately
Test: Cmax in Sprague-Dawley rat at 10 mg/kg, po measured upto 24 hrs by LC-MS/MS analysis
Type: ADME, organism-based
Parameters: route oral, dose 10 mg/kg, time <=24
Conditions: in vivo

Row | Compound | Cmax
32 | NC(=O)c1sc(-c2ccnc(NC(=O)C3CC3)c2)nc1OCCCC1CCN(Cc2ccccc2)CC1 | 44.1 ng/mL

Tested on: BV-2
Test: Anti-inflammatory activity in mouse BV-2 cells assessed as reduction in LPS-induced ROS production at 3 uM incubated for 1 hr followed by LPS stimulation and measured after 24 hrs by DCFH-DA staining based inverted fluorescence microscopy
Type: functional, cell-based
Conditions: time 25.0 hrs

Row | Compound | Activity
33 | NC(=O)c1sc(-c2ccnc(NC(=O)C3CC3)c2)nc1OCCCC1CCN(Cc2ccccc2)CC1 | Active

Target: Glycogen synthase kinase-3 beta (Homo sapiens, UniProt P49841)
Sequence (P49841 whole entry): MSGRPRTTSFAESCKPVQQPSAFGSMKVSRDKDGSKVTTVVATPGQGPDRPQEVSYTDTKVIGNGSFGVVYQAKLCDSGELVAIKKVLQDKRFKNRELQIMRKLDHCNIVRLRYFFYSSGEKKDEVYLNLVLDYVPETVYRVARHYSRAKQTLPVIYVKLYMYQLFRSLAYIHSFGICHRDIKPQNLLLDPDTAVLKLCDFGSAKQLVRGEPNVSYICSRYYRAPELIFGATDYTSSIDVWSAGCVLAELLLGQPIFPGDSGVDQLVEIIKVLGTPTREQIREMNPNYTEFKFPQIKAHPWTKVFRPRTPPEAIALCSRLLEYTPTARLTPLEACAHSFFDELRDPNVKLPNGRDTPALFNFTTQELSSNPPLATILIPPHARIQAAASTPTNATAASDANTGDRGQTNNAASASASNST
Test: biochemical
Conditions: not given

Row | Compound | IC50
34 | NC(=O)c1sc(-c2ccnc(NC(=O)C3CC3)c2)nc1OCCCC1CCN(Cc2ccccc2F)CC1 | 15 nM
35 | NC(=O)c1sc(-c2ccnc(NC(=O)C3CC3)c2)nc1OCCCC1CCN(Cc2ccccc2)CC1 | 8 nM

Tested on: not listed separately
Test: Plasma concentration in ICR mouse at 15 mg/kg, po measured after 90 mins by LC-MS/MS analysis
Type: ADME, organism-based
Conditions: not given

Row | Compound | concentration at 1.5 h
36 | NC(=O)c1sc(-c2ccnc(NC(=O)C3CC3)c2)nc1OCCCC1CCN(Cc2ccccc2)CC1 | 84.9 ng/mL
